Data on seven compounds can be found in patent US7485623B2 (priority 2002, dated 2009).

Data set [1] can be described thus: Example 1: radioactivity and metabolites in breast tissue after percutaneous [3H]-labeled drug.
Experimental: (§1) The patients received [^3H]-labeled drug applied directly on the affected breasts at specified intervals ranging from 12 hours to 7 days before surgery to excise diseased tissue. Breast tissue from three regions: the tumor, tissue immediately surrounding the tumor, and normal tissue, was excised and immediately frozen in liquid nitrogen. Additionally, plasma and urine samples were obtained at scheduled intervals and frozen until analysis.
Data set [2] is described as follows: Example 1: radioactivity in blood and urine after percutaneous [3H]-labeled drug. Particulars: for share of radioactivity in blood: 24 hours after percutaneous [3H]-4-hydroxy tamoxifen.
Experimental: as §1
The nature of data set [3]: Example 3: plasma pharmacokinetics of 4-hydroxy tamoxifen gel in healthy premenopausal women. The following applies: for AUC0-24, Mean ± SD / Cav = AUC0-24/24, Mean ± SD / tmax, Mean ± SD / Cmax, Mean ± SD / t1/2 (range): last administration; for Cmax, Mean ± SD: day 25 of second cycle. The protocol: Each participant applied the gel daily for the duration of two menstrual cycles.
At the end of a menstrual cycle, each patient received a single dose, after which serial blood samples were collected at 0, 0.5, 1, 1.5, 2, 3, 4, 6, 12, 18, 24, 36, 48, and 72 hours.
On the first day of the following menstruation, treatment, which consisted of daily application of the gel over two menstrual cycles, began. Blood samples were collected 24 hours following the morning application of gel on days 7, 20 and 25 of the first and second cycles. On the last day of administration, day 25 of the second menstrual cycle, serial blood samples were collected prior to application and at 0.5, 1, 1.5, 2, 3, 4, 6, 12, 18, 24, 36, 48, and 72 hours after application of the gel.

In data set [4] the test system is estrogen receptors. The following applies: in vitro; cited from earlier work.
The conditions of data set [5]: topical application.
Data set [6] addresses T1, estrone sulphatase (Homo sapiens, UniProt P08842).
T1 construct: estrone sulphatase activity in mammary cancer cell lines
T1 sequence (P08842 22-583): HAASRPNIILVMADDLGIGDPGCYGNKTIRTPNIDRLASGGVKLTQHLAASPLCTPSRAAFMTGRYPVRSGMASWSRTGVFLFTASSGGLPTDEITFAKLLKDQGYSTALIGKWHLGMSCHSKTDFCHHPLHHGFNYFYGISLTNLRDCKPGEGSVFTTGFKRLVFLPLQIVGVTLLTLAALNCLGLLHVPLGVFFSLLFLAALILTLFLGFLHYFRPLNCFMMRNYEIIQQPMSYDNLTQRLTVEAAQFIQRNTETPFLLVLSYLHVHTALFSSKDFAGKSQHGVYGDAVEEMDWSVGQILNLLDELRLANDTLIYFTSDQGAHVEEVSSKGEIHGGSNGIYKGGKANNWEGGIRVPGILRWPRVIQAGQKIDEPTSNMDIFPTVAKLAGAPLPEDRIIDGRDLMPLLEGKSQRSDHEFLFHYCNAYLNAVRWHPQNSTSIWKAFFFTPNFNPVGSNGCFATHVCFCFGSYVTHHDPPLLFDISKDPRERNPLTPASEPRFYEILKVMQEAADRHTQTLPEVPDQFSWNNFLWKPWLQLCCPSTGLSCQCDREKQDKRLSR
The following applies: mammary cancer cell lines; cited from earlier work.

Data set [7] concerns p53(−) normal human mammary epithelial cells. The following applies: cited from earlier work.
In data set [8] the test system is breast density. Particulars: cited from earlier work.
The conditions of data set [9]: oral tamoxifen; cited from earlier work.
For data set [10], the system named is rat liver. The following applies: cited from earlier work.
For data set [11] the following is noted: Group 2 (0.5 mg/day gel), seventh day; Group 1 (oral tamoxifen), fifth day; cited from earlier work.
The mark [12] stands for this setting: 36 hr after percutaneous trans-[3H]-4-hydroxy tamoxifen.
[13] abbreviates: Day 4 after percutaneous trans-[3H]-4-hydroxy tamoxifen.
Setting [14] is: Day 7 after percutaneous trans-[3H]-4-hydroxy tamoxifen.
[15] abbreviates: 12 hr after percutaneous trans-[3H]-4-hydroxy tamoxifen.
The mark [16] stands for this setting: 24 hr after percutaneous trans-[3H]-4-hydroxy tamoxifen.
Where [17] appears, read: 0.5 mg/day (n = 12), gel 20 mg/100 g.
Where [18] appears, read: 1 mg/day (n = 8), gel 20 mg/100 g.
The mark [19] stands for this setting: 1 mg/day (n = 12), gel 57 mg/100 g.
Where [20] appears, read: 2 mg/day (n = 12), gel 57 mg/100 g.

For `CC/C(=C(\c1ccc(O)cc1)c1ccc(OCCN(C)C)cc1)c1ccccc1` [Trans 4-hydroxy tamoxifen], in [1] (day 7), the “percentage of radioactivity in breast tissue as isomer of 4-hydroxy tamoxifen” value was found to be 32%.

Take `CC/C(=C(\c1ccccc1)c1ccc(OCCNC)cc1)c1ccccc1` [N-Desmethyl tamoxifen]: the “% Metabolites in Breast Tissue” value is under 1% in [1] (setting [12]), under 1% in data set [1] (setting [13]) and 3-4% in data set [1] (setting [14]).

As to `CC(C)(c1ccc(O)cc1)c1ccc(O)cc1` [Bisphenol], the “% Metabolites in Breast Tissue” value in [1] (setting [15]) is 1%; in data set [1] (setting [16]) it was 2%; in data set [1] (setting [12]) it was 3%; in data set [1] (setting [13]), 8%; in data set [1] (setting [14]) it was 8%. Also, in data set [2], the “share of radioactivity in blood” value is 11%.

Take `CCC(=C(c1ccc(O)cc1)c1ccc(OCCNC)cc1)c1ccccc1` [N-Desmethyl-4-Hydroxy Tamoxifen]: the “% Metabolites in Breast Tissue” value in data set [1] (setting [15]) was 2%; in [1] (setting [16]), 4%; in [1] (setting [12]), 14%; in [1] (setting [13]) it was 20%; in data set [1] (setting [14]), 16%. The “share of radioactivity in blood” value in [2] is given as 18%.

Take `CC/C(=C(\c1ccccc1)c1ccc(OCCN(C)C)cc1)c1ccccc1` [[^3H]-tamoxifen, reference compound]: the “time of plateau of radioactivity in blood” value in data set [2] (percutaneous application) came to 2 days.

For `CC/C(=C(\c1ccc(O)cc1)c1ccc(OCCN(C)C)cc1)c1ccccc1` [4-hydroxy tamoxifen, 1-[4-(2-N-dimethylaminoethoxy)phenyl]-1-(4-hydroxyphenyl)-2-phenylbut-1-(Z)-ene], the “AUC0-24, Mean ± SD” value in data set [3] (setting [17]) is 0.2563 ng·h/mL; in data set [3] (setting [18]), 0.3009 ng·h/mL; in data set [3] (setting [19]), 0.619 ± 0.466 ng·h/mL; in [3] (setting [20]), 0.998 ± 0.653 ng·h/mL. The “Cav = AUC0-24/24, Mean ± SD” value was 0.0107 ± 0.0085 ng/mL in data set [3] (setting [17]), 0.0125 ± 0.0079 ng/mL in data set [3] (setting [18]), 0.0258 ± 0.0194 ng/mL in data set [3] (setting [19]) and 0.0416 ± 0.0272 ng/mL in data set [3] (setting [20]). Also, the “tmax, Mean ± SD” value was determined as 40 ± 81 h in data set [3] (setting [17]), 24 ± 18 h in data set [3] (setting [18]), 12.8 ± 14.9 h in data set [3] (setting [19]) and 11.8 ± 12.3 h in [3] (setting [20]). Besides, the “Cmax, Mean ± SD” value in data set [3] (setting [17]) worked out at 0.017 ± 0.0085 ng/mL; in data set [3] (setting [18]), 0.021 ± 0.014 ng/mL; in [3] (setting [19]) it was 0.0351 ± 0.0224 ng/mL; in data set [3] (setting [20]) it was 0.0516 ± 0.0317 ng/mL. Besides, the “t1/2 (range)” value in data set [3] (setting [19]) is recorded as “(58-118) hr”; in data set [3] (setting [20]) it was “(49-101) hr”. In data set [3] (in vivo), the “detectability in plasma after the last gel application” value was “remained detectable 72 hours after the last gel application”. In addition, the exposure versus dose result in data set [3] (topical application, 0.5, 1, and 2 mg) is on record as “increases with dose”. Moreover, the “binding affinity for estrogen receptors, compared with estradiol” value in [4] is recorded as “a binding affinity similar to estradiol”. The “potency as binding affinity to estrogen receptors, compared with tamoxifen” value in data set [4] is listed as “more potency than tamoxifen”. The “% Metabolites in Breast Tissue” value in data set [1] (setting [15]) was 97%; in data set [1] (setting [16]), 94%; in data set [1] (setting [12]) it was 78%; in data set [1] (setting [13]), 70%; in data set [1] (setting [14]), 65%. Moreover, the “metabolism in intracellular sites of breast tissue” value in data set [1] (cytosolic and nuclear fractions) was “remained unmetabolized except for limited isomerization from the trans to the cis form”. For the same compound, the “subcellular distribution in breast tissue” value in data set [1] (percutaneous application) is “concentrated predominantly in the cytosolic and nuclear fractions of breast tissue”. The “retention in the breast” value in data set [1] (percutaneous application of [3H]-labeled drug) is recorded as “approximately 4 days”. Also, in [2], the “share of radioactivity in blood” value was determined as 68%. For the same compound, in data set [2] (percutaneous administration), the “urinary elimination compared to percutaneous tamoxifen” value is “Peak urinary elimination occurred at a later time”. Moreover, the systemic effects result in data set [5] is “no detectable laboratory or clinical evidence of systemic effects”. Also, the “effect on estrone sulphatase activity” value in data set [6] is reported as “significant inhibitory effect”.

For `CC/C(=C(\c1ccccc1)c1ccc(OCCN(C)C)cc1)c1ccccc1` [tamoxifen], in data set [7], the initiation of apoptosis entry is “initiates apoptosis”. Further, the “women with decreased breast parenchyma” value in data set [8] (20 mg/day after surgery for breast cancer (Son et al.)) was 59.8%. In addition, the “change of mammographic pattern” value in [8] (contralateral breasts of postmenopausal breast cancer patients, 20 mg/day) is reported as “significant change toward a less dense mammographic pattern”. Further, the “decrease of breast parenchyma in premenopausal women” value in data set [8] (premenopausal women, 20 mg/day (Son et al.)) is on record as 87%. In addition, the “side effects reported by patients” value in data set [9] was “hot flashes, vaginal discharge, depression, amenorrhea, and nausea”. Besides, in data set [6], the “effect on estrone sulphatase activity” value was “little or no effect”. The rat liver carcinogenicity result in data set [10] is reported as “potent rat liver carcinogen”. In [11], the “side effects reported by one person” value is “hot flashes and mild vaginitis”.
